Experimental data: patent US20190127381A1, “SUBSTITUTED FUSED PYRIMIDINONE COMPOUNDS” (TORRENT PHARMACEUTICALS LIMITED, priority 2016, published 2019)

Columns and labels:
[1] = molecular target: T1, purified recombinant human PI3K enzyme γ (Homo sapiens, UniProt P48736); test: Inhibition of PI3-Kinase enzymatic activity (HTRF enzyme assay), γ; assay type: biochemical; conditions: 1 μM compound; PI3K γ 100 ng/well; PIP2 10 μM; ATP 50 μM; read-out: Percentage inhibition of PI3K activity, γ
T1 construct: purchased Invitrogen, USA
T1 sequence (P48736 whole entry): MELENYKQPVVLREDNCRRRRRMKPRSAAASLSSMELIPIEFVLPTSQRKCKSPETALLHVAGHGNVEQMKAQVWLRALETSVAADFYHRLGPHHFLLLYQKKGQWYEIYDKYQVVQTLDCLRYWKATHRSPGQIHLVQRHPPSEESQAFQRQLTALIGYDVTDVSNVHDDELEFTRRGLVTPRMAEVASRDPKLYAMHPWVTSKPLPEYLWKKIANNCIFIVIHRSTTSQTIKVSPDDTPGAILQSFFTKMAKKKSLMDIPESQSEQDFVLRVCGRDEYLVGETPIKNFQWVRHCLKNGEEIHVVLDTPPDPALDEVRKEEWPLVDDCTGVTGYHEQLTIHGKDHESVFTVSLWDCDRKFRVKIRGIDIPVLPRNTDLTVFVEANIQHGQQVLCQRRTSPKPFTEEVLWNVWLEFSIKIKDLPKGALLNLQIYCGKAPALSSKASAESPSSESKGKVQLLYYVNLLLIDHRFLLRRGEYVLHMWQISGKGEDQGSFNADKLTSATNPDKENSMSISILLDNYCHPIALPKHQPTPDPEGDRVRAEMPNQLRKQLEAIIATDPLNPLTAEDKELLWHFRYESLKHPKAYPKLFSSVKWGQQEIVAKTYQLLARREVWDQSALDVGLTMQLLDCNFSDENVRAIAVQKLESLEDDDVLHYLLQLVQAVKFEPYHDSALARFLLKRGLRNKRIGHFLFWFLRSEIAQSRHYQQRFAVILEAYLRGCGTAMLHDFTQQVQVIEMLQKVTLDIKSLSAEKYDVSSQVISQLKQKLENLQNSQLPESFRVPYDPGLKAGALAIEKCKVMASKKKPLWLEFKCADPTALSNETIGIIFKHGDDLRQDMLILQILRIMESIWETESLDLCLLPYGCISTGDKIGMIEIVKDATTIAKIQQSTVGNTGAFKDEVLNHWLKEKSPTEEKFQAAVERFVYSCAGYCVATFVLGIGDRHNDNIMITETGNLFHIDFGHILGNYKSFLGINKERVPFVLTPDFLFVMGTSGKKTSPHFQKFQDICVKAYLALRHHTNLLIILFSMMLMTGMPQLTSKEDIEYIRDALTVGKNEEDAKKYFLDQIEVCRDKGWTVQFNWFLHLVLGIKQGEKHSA
Experimental: (§1) Inhibition of PI3-Kinase enzymatic activity was determined using a homogeneous time-resolved fluorescence (HTRF) kit from Eurofins. 1 μM of Compounds of present invention were premixed with DMSO. The experiment was initiated by mixing 1.0% DMSO as vehicle/compounds with purified recombinant human PI3K enzyme {δ (50 ng/well); γ (100 ng/well)} (Invitrogen, USA) and substrate (PIP2, 10 μM) in the wells and incubation for 15 min at room temperature. There after ATP was added (δ at 200 μM, and γ at 50 μM) in to the wells containing reaction mixture, followed by re-incubation for 30 minutes at room temperature. Reaction was terminated by addition of a stopping solution and was further incubated for 4 hours at room temperature before reading using Envision multimode reader (Perkin Elmer). Percentage inhibition of PI3K activity was calculated by determining ratio of specific europium 665 nm energy transfer signal to reference 615 nm signals.

[2] = molecular target: T2, purified recombinant human PI3K enzyme δ (Homo sapiens, UniProt O00329); test: Inhibition of PI3-Kinase enzymatic activity (HTRF enzyme assay), δ; assay type: biochemical; conditions: 1 μM compound; PI3K δ 50 ng/well; PIP2 10 μM; ATP 200 μM; read-out: Percentage inhibition of PI3K activity, δ
T2 construct: purchased Invitrogen, USA
T2 sequence (O00329 whole entry): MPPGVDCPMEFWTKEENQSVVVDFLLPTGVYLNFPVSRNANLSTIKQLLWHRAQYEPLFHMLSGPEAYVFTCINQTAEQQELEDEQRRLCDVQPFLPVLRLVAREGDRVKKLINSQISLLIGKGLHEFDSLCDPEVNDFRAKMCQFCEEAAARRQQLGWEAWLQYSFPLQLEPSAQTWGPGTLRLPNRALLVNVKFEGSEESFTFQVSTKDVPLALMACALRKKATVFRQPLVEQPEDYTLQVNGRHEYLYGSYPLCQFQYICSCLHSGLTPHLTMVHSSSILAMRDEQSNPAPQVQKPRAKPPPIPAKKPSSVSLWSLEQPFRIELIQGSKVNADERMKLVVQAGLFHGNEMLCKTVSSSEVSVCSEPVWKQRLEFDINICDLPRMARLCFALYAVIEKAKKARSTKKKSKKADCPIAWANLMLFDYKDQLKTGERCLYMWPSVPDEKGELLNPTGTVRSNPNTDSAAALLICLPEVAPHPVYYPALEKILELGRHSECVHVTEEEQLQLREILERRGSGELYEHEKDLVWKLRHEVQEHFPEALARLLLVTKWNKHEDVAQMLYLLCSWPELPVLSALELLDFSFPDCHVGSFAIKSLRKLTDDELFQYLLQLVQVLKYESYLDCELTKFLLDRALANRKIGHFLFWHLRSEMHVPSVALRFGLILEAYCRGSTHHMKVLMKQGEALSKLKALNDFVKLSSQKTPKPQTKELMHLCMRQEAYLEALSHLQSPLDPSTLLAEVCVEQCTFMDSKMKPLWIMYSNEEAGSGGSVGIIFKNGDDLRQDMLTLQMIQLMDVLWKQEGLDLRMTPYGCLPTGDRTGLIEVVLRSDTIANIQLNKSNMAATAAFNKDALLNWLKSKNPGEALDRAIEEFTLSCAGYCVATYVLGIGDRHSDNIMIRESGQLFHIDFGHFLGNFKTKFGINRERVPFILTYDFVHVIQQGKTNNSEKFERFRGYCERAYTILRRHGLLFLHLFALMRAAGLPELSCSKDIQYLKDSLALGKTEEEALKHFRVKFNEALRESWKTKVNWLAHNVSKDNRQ
T2 sequence (P27986 whole entry partner): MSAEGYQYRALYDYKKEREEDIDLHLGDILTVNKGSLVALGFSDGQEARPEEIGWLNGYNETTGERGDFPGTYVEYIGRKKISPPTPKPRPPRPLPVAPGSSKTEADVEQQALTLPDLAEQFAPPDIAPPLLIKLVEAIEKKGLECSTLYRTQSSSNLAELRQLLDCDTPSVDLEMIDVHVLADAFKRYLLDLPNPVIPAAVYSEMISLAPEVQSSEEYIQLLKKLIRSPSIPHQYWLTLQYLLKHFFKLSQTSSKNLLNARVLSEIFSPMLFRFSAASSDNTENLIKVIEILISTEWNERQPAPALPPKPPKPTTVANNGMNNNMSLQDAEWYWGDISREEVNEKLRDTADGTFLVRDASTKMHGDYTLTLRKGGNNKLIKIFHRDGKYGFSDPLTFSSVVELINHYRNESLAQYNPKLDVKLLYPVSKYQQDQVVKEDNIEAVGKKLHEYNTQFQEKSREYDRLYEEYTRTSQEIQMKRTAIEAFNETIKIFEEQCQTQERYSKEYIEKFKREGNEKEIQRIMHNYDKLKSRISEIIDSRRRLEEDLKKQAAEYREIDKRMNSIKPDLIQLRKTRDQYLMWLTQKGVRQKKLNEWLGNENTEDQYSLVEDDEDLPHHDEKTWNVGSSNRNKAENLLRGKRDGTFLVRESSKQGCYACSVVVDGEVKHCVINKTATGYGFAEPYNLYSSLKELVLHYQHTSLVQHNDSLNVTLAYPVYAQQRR
Experimental: as §1

Compound	inhibition at 1 µM [1]	inhibition at 1 µM [2]
Cn1cc(-c2cccc3nc(Cn4nc(-c5ccc(O)c6c5CC(C)(C)O6)c5c(N)ncnc54)n(C4(c5ccsc5)CC4)c(=O)c23)cn1 [compound 69, 2-{[4-amino-3-(7-hydroxy-2,2-dimethyl-2,3-dihydro-1-benzofuran-4-yl)-1H-pyrazolo[3,4-d]pyrimidin-1-yl]methyl}-5-(1-methyl-1H-pyrazol-4-yl)-3-[1-(thiophen-3-yl)cyclopropyl]quinazolin-4(3H)-one]	60 to 80%	80 to 100%
CC1(C)Cc2c(-c3nn(Cc4nc5cccc(Cl)c5c(=O)n4C4(c5ccccc5)CC4)c4ncnc(N)c34)ccc(O)c2O1 [compound 5, 2-{[4-amino-3-(7-hydroxy-2,2-dimethyl-2,3-dihydro-1-benzofuran-4-yl)-1H-pyrazolo[3,4-d]pyrimidin-1-yl]methyl}-5-chloro-3-(1-phenylcyclopropyl)quinazolin-4(3H)-one]	80 to 100%	80 to 100%
Cc1ccccc1C1(n2c(Cn3nc(-c4ccc(O)c5c4CC(C)(C)O5)c4c(N)ncnc43)nc3cccc(-c4ccnn4C)c3c2=O)CC1 [compound 59, 2-{[4-amino-3-(7-hydroxy-2,2-dimethyl-2,3-dihydro-1-benzofuran-4-yl)-1H-pyrazolo[3,4-d]pyrimidin-1-yl]methyl}-3-[1-(2-methylphenyl)cyclopropyl]-5-(1-methyl-1H-pyrazol-5-yl)quinazolin-4(3H)-one]	60 to 80%	80 to 100%
CCn1cc(-c2cccc3nc([C@H](C)n4nc(-c5ccc(O)c6c5CC(C)(C)O6)c5c(N)ncnc54)n(-n4cccc4)c(=O)c23)cn1 [compound 99, 2-{(1S)-1-[4-amino-3-(7-hydroxy-2,2-dimethyl-2,3-dihydro-1-benzofuran-4-yl)-1H-pyrazolo[3,4-d]pyrimidin-1-yl]ethyl}-5-(1-ethyl-1H-pyrazol-4-yl)-3-(1H-pyrrol-1-yl)quinazolin-4(3H)-one]	40 to 60%	80 to 100%
Cc1cccc2nc(Cn3nc(-c4ccc(O)c5c4CC(C)(C)O5)c4c(N)ncnc43)n(C3(c4ccccc4)CC3)c(=O)c12 [Compound No. 8, 2-{[4-amino-3-(7-hydroxy-2,2-dimethyl-2,3-dihydro-1-benzofuran-4-yl)-1H-pyrazolo[3,4-d]pyrimidin-1-yl]methyl}-5-methyl-3-(1-phenylcyclopropyl)quinazolin-4(3H)-one]	60 to 80%	80 to 100%
Cn1nccc1-c1cccc2nc(Cn3nc(-c4ccc(O)c5c4CC(C)(C)O5)c4c(N)ncnc43)n(C3(c4ccccc4)CC3)c(=O)c12 [compound 30, 2-{[4-amino-3-(7-hydroxy-2,2-dimethyl-2,3-dihydro-1-benzofuran-4-yl)-1H-pyrazolo[3,4-d]pyrimidin-1-yl]methyl}-5-(1-methyl-1H-pyrazol-5-yl)-3-(1-phenylcyclopropyl)quinazolin-4(3H)-one]	60 to 80%	80 to 100%
CC1(C)Cc2c(-c3nn(Cc4nc5cccc(Br)c5c(=O)n4C4(c5ccccc5)CC4)c4ncnc(N)c34)ccc(O)c2O1 [compound 13, 2-{[4-amino-3-(7-hydroxy-2,2-dimethyl-2,3-dihydro-1-benzofuran-4-yl)-1H-pyrazolo[3,4-d]pyrimidin-1-yl]methyl}-5-bromo-3-(1-phenylcyclopropyl)quinazolin-4(3H)-one]	80 to 100%	80 to 100%
CCCn1cc(-c2cccc3nc(Cn4nc(-c5ccc(O)c6c5CC(C)(C)O6)c5c(N)ncnc54)n(-n4c(C)ccc4C)c(=O)c23)cn1 [compound 89, 2-{[4-amino-3-(7-hydroxy-2,2-dimethyl-2,3-dihydro-1-benzofuran-4-yl)-1H-pyrazolo[3,4-d]pyrimidin-1-yl]methyl}-3-(2,5-dimethyl-1H-pyrrol-1-yl)-5-(1-propyl-1H-pyrazol-4-yl)quinazolin-4(3H)-one]	80 to 100%	80 to 100%
Cc1ccccc1C1(n2c(Cn3nc(-c4ccc(O)c5c4CC(C)(C)O5)c4c(N)ncnc43)nc3cccc(C)c3c2=O)CC1 [compound 56, 2-{[4-amino-3-(7-hydroxy-2,2-dimethyl-2,3-dihydro-1-benzofuran-4-yl)-1H-pyrazolo[3,4-d]pyrimidin-1-yl]methyl}-5-methyl-3-[1-(2-methylphenyl)cyclopropyl]quinazolin-4(3H)-one]	60 to 80%	80 to 100%
CC1(C)Cc2c(-c3nn(Cc4nc5cccc(Cl)c5c(=O)n4-n4cccn4)c4ncnc(N)c34)ccc(O)c2O1 [compound 6, 2-{[4-amino-3-(7-hydroxy-2,2-dimethyl-2,3-dihydro-1-benzofuran-4-yl)-1H-pyrazolo[3,4-d]pyrimidin-1-yl]methyl}-5-chloro-3-(1H-pyrazol-1-yl)quinazolin-4(3H)-one]	60 to 80%	80 to 100%
Cc1ccccc1C1(n2c(Cn3nc(-c4ccc(O)c5c4CC(C)(C)O5)c4c(N)ncnc43)nc3cccc(Cl)c3c2=O)CC1 [compound 55, 2-{[4-amino-3-(7-hydroxy-2,2-dimethyl-2,3-dihydro-1-benzofuran-4-yl)-1H-pyrazolo[3,4-d]pyrimidin-1-yl]methyl}-5-chloro-3-[1-(2-methylphenyl)cyclopropyl]quinazolin-4(3H)-one]	60 to 80%	80 to 100%
Cc1ccc(C)n1-n1c(Cn2nc(-c3ccc(O)c4c3CC(C)(C)O4)c3c(N)ncnc32)nc2ccccc2c1=O [compound 88, 2-{[4-amino-3-(7-hydroxy-2,2-dimethyl-2,3-dihydro-1-benzofuran-4-yl)-1H-pyrazolo[3,4-d]pyrimidin-1-yl]methyl}-3-(2,5-dimethyl-1H-pyrrol-1-yl)quinazolin-4(3H)-one]	80 to 100%	80 to 100%
CC1(C)Cc2c(-c3nn(Cc4nc5cccc(-c6ccncc6)c5c(=O)n4C4(c5ccccc5)CC4)c4ncnc(N)c34)ccc(O)c2O1 [compound 21, 2-{[4-amino-3-(7-hydroxy-2,2-dimethyl-2,3-dihydro-1-benzofuran-4-yl)-1H-pyrazolo[3,4-d]pyrimidin-1-yl]methyl}-3-(1-phenylcyclopropyl)-5-(pyridin-4-yl)quinazolin-4(3H)-one]	60 to 80%	80 to 100%
CC1(C)Cc2c(-c3nn(Cc4nc5cccc(Cl)c5c(=O)n4-n4cccc4)c4ncnc(N)c34)ccc(O)c2O1 [Compound No. 3, 2-{[4-amino-3-(7-hydroxy-2,2-dimethyl-2,3-dihydro-1-benzofuran-4-yl)-1H-pyrazolo[3,4-d]pyrimidin-1-yl]methyl}-5-chloro-3-(1H-pyrrol-1-yl)quinazolin-4(3H)-one]	80 to 100%	80 to 100%
Cn1nccc1-c1cccc2nc(Cn3nc(-c4ccc(O)c5c4CC(C)(C)O5)c4c(N)ncnc43)n(-n3cccc3)c(=O)c12 [compound 22, 2-{[4-amino-3-(7-hydroxy-2,2-dimethyl-2,3-dihydro-1-benzofuran-4-yl)-1H-pyrazolo[3,4-d]pyrimidin-1-yl]methyl}-5-(1-methyl-1H-pyrazol-5-yl)-3-(1H-pyrrol-1-yl)quinazolin-4(3H)-one]	60 to 80%	80 to 100%
CC1(C)Cc2c(-c3nn(Cc4nc5cccc(C#CCN6CCOCC6)c5c(=O)n4-n4cccc4)c4ncnc(N)c34)ccc(O)c2O1 [compound 35, 2-{[4-amino-3-(7-hydroxy-2,2-dimethyl-2,3-dihydro-1-benzofuran-4-yl)-1H-pyrazolo[3,4-d]pyrimidin-1-yl]methyl}-5-[3-(morpholin-4-yl)prop-1-yn-1-yl]-3-(1H-pyrrol-1-yl)quinazolin-4(3H)-one]	60 to 80%	80 to 100%
CCn1cc(-c2cccc3nc(Cn4nc(-c5ccc(O)c6c5CCC6)c5c(N)ncnc54)n(-n4c(C)ccc4C)c(=O)c23)cn1 [compound 94, 2-{[4-amino-3-(7-hydroxy-2,3-dihydro-1H-inden-4-yl)-1H-pyrazolo[3,4-d]pyrimidin-1-yl]methyl}-3-(2,5-dimethyl-1H-pyrrol-1-yl)-5-(1-ethyl-1H-pyrazol-4-yl)quinazolin-4(3H)-one]	80 to 100%	80 to 100%
COc1ccc(-c2nn(Cc3nc4cccc(C)c4c(=O)n3-n3cccc3)c3ncnc(N)c23)c2c1OC(C)(C)C2 [compound 84, 2-{[4-amino-3-(7-methoxy-2,2-dimethyl-2,3-dihydro-1-benzofuran-4-yl)-1H-pyrazolo[3,4-d]pyrimidin-1-yl]methyl}-5-methyl-3-(1H-pyrrol-1-yl)quinazolin-4(3H)-one]	60 to 80%	80 to 100%
Cc1cc(C)n(-n2c(Cn3nc(-c4ccc(O)c5c4CC(C)(C)O5)c4c(N)ncnc43)nc3cccc(Cl)c3c2=O)n1 [compound 12, 2-{[4-amino-3-(7-hydroxy-2,2-dimethyl-2,3-dihydro-1-benzofuran-4-yl)-1H-pyrazolo[3,4-d]pyrimidin-1-yl]methyl}-5-chloro-3-(3,5-dimethyl-1H-pyrazol-1-yl)quinazolin-4(3H)-one]	80 to 100%	80 to 100%
COc1ccc(-c2nn(Cc3nc4cccc(C)c4c(=O)n3-n3c(C)ccc3C)c3ncnc(N)c23)c2c1OC(C)(C)C2 [compound 78, 2-{[4-amino-3-(7-methoxy-2,2-dimethyl-2,3-dihydro-1-benzofuran-4-yl)-1H-pyrazolo[3,4-d]pyrimidin-1-yl]methyl}-3-(2,5-dimethyl-1H-pyrrol-1-yl)-5-methylquinazolin-4(3H)-one]	60 to 80%	80 to 100%
